Experiments:
Assay type in all cases: in vivo
Details in all cases: rated four to five weeks after treatment
[1] = system: AMBROSIA ARTEMISIIFOLIA, L.; assay: Preemergence herbicidal evaluation, AMBEL (Ragweed, Common)
Source text: (§1) Results of herbicide evaluation are expressed on a rating scale (0-9). The scale is based upon a visual observation of plant stand, vigor, malformation, size, chlorosis and overall plant appearance as compared with a control.
(§2) The preemergence herbicidal activity of the test compounds of the present invention is exemplified by the following tests in which the seeds of a variety of monocotyledonous and dicotyledonous plants are separately mixed with potting soil and planted on top of approximately one inch of soil in separate pint cups. After planting, the cups are sprayed with the selected aqueous acetone solution containing test compound in sufficient quantity to provide the equivalent of about 0.125 to 0.50 kg per hectare of test compound per cup. The treated cups are then placed on greenhouse benches, watered and cared for in accordance with conventional greenhouse procedures. From four to five weeks after treatment, the tests are terminated and each cup is examined and rated according to the rating system provided in Example 42.

ZEA MAYS L. = assay: Preemergence herbicidal evaluation, ZEAMX (Corn, Field)
Source text: as §1, §2

[2] = system: ORYZA SATIVA, L. TEBONNET; assay: Preemergence herbicidal evaluation, ORYSAT (Rice, Tebonnet)
Source text: as §1, §2

CHENOPODIUM ALBUM, L. [3] = assay: Preemergence herbicidal evaluation, CHEAL (Lambsquarters, Common)
Source text: as §1, §2

IPOMOEA SPP. = assay: Preemergence herbicidal evaluation, IPOSS (Morningglory Spp.)
Source text: as §1, §2

[4] = system: ECHINOCHLOA CRUS-GALLI, (L) BEAU; assay: Postemergence herbicidal evaluation, ECHCG (Barnyardgrass)
Method: (§3) In the tests, seedling plants are grown in jiffy flats for about two weeks. The test compounds are dispersed in 50/50 acetone/water mixtures containing 0.5% TWEEN®20, a polyoxyethylene sorbitan monolaurate surfactant of Atlas Chemical Industries, in sufficient quantities to provide the equivalent of about 0.125 kg to 0.500 kg per hectare of active compound when applied to the plants through a spray nozzle operating at 40 psi for a predetermined time. After spraying, the plants are placed on greenhouse benches and are cared for in the usual manner, commensurate with conventional greenhouse practices. From four to five weeks after treatment, the seedling plants are examined and rated according to the rating system set forth below. Where more than one test is involved for a given compound, the data are averaged.
as §1

CASSIA OBTUSIFOLIA, L. = assay: Preemergence herbicidal evaluation, CASOB (Sicklepod)
Source text: as §1, §2

[5] = system: TRITICUM AESTIVUM, CV. APOLLO; assay: Preemergence herbicidal evaluation, TRZAWO (Wheat, Winter, CV. APOLLO)
Source text: as §1, §2

[6] = system: GLYCINE MAX(L)MERR. CV. WILLIAMS; assay: Preemergence herbicidal evaluation, GLXMAW (Soybean, Williams)
Source text: as §1, §2

CHENOPODIUM ALBUM, L. [7] = assay: Postemergence herbicidal evaluation, CHEAL (Lambsquarters, Common)
Method: as §3, §1

[8] = system: SETARIA VIRIDIS, (L) BEAU; assay: Preemergence herbicidal evaluation, SETVI (Foxtail, Green)
Source text: as §1, §2

[9] = system: ECHINOCHLOA CRUS-GALLI, (L) BEAU; assay: Preemergence herbicidal evaluation, ECHCG (Barnyardgrass)
Source text: as §1, §2

[10] = system: SETARIA VIRIDIS, (L) BEAU; assay: Postemergence herbicidal evaluation, SETVI (Foxtail, Green)
Method: as §3, §1

[11] = system: ORYZA SATIVA, L. TEBONNET; assay: Postemergence herbicidal evaluation, ORYSAT (Rice, Tebonnet)
Method: as §3, §1

CC(C)OC(=O)Cn1c(=O)n(C)c(=O)n(-c2cc(N3C(=O)c4cccc(F)c4C3=O)c(F)cc2Cl)c1=O [Compound 11, Isopropyl 3-[2-chloro-4-fluoro-5-(3-fluoro-phthalimido)phenyl]tetrahydro-5-methyl-2,4,6-trioxo-s-triazine-1(2H)-acetate]
9.0: Herbicide rating (0-9) CHEAL (CHENOPODIUM ALBUM, L. [3]; 0.125 kg/ha) | Herbicide rating (0-9) CHEAL (CHENOPODIUM ALBUM, L. [3]; 0.250 kg/ha) | Herbicide rating (0-9) CHEAL (CHENOPODIUM ALBUM, L. [3]; 0.500 kg/ha) | Herbicide rating (0-9) CHEAL (CHENOPODIUM ALBUM, L. [7]; 0.125 kg/ha) | Herbicide rating (0-9) CHEAL (CHENOPODIUM ALBUM, L. [7]; 0.250 kg/ha) | Herbicide rating (0-9) CHEAL (CHENOPODIUM ALBUM, L. [7]; 0.500 kg/ha)
0.0: Herbicide rating (0-9) AMBEL ([1]; 0.125 kg/ha) | Herbicide rating (0-9) AMBEL ([1]; 0.250 kg/ha) | Herbicide rating (0-9) AMBEL ([1]; 0.500 kg/ha) | Herbicide rating (0-9) ZEAMX (ZEA MAYS L.; 0.125 kg/ha) | Herbicide rating (0-9) ZEAMX (ZEA MAYS L.; 0.250 kg/ha) | Herbicide rating (0-9) ZEAMX (ZEA MAYS L.; 0.500 kg/ha) | Herbicide rating (0-9) ORYSAT ([2]; 0.125 kg/ha) | Herbicide rating (0-9) ORYSAT ([2]; 0.250 kg/ha) | Herbicide rating (0-9) ORYSAT ([2]; 0.500 kg/ha) | Herbicide rating (0-9) IPOSS (IPOMOEA SPP.; 0.125 kg/ha) | Herbicide rating (0-9) IPOSS (IPOMOEA SPP.; 0.250 kg/ha) | Herbicide rating (0-9) IPOSS (IPOMOEA SPP.; 0.500 kg/ha) | Herbicide rating (0-9) CASOB (CASSIA OBTUSIFOLIA, L.; 0.125 kg/ha) | Herbicide rating (0-9) CASOB (CASSIA OBTUSIFOLIA, L.; 0.250 kg/ha) | Herbicide rating (0-9) CASOB (CASSIA OBTUSIFOLIA, L.; 0.500 kg/ha) | Herbicide rating (0-9) TRZAWO ([5]; 0.125 kg/ha) | Herbicide rating (0-9) TRZAWO ([5]; 0.250 kg/ha) | Herbicide rating (0-9) TRZAWO ([5]; 0.500 kg/ha) | Herbicide rating (0-9) GLXMAW ([6]; 0.125 kg/ha) | Herbicide rating (0-9) GLXMAW ([6]; 0.250 kg/ha) | Herbicide rating (0-9) GLXMAW ([6]; 0.500 kg/ha) | Herbicide rating (0-9) SETVI ([8]; 0.125 kg/ha) | Herbicide rating (0-9) SETVI ([8]; 0.250 kg/ha) | Herbicide rating (0-9) SETVI ([8]; 0.500 kg/ha) | Herbicide rating (0-9) ECHCG ([9]; 0.125 kg/ha) | Herbicide rating (0-9) ECHCG ([9]; 0.250 kg/ha) | Herbicide rating (0-9) ECHCG ([9]; 0.500 kg/ha)
3.0: Herbicide rating (0-9) ECHCG ([4]; 0.125 kg/ha) | Herbicide rating (0-9) ECHCG ([4]; 0.250 kg/ha) | Herbicide rating (0-9) ECHCG ([4]; 0.500 kg/ha)

C#CCn1c(=O)n(CC=C)c(=O)n(-c2cc(N3C(=O)C4=C(CCCC4)C3=O)c(F)cc2Cl)c1=O [Compound 20, N-{5-[3-Allylhexahydro-2,4,6-trioxo-5-(2-propynyl)-s-triazin-1-yl]-4-chloro-2-fluoro-phenyl}-1-cyclohexene-1,2-dicarboximide]
0.0: Herbicide rating (0-9) ECHCG ([4]; 0.125 kg/ha) | Herbicide rating (0-9) ECHCG ([4]; 0.250 kg/ha) | Herbicide rating (0-9) ECHCG ([4]; 0.500 kg/ha) | Herbicide rating (0-9) SETVI ([10]; 0.125 kg/ha) | Herbicide rating (0-9) SETVI ([10]; 0.250 kg/ha) | Herbicide rating (0-9) SETVI ([10]; 0.500 kg/ha)
2.0: Herbicide rating (0-9) ORYSAT ([11]; 0.125 kg/ha) | Herbicide rating (0-9) ORYSAT ([11]; 0.250 kg/ha) | Herbicide rating (0-9) ORYSAT ([11]; 0.500 kg/ha)
